Laboratory results published in US20250236654A1, “C-TYPE NATRIURETIC PEPTIDE ENGRAFTED ANTIBODIES” (Bayer Aktiengesellschaft, priority 2018, published 2025).
Where a SMILES comes first, the peptide text is derived from it. Bridges are numbered along the chain shown (N, C = ends). Where no end group is shown, it is not given here.

Key:
[1] = molecular target: T1, insulin degrading enzyme (IDE) (Rattus norvegicus, UniProt P35559); assay: Sensitivity towards proteolytic degradation by IDE (activity on receptor cell line after incubation); format: in vitro ADME; conditions: 4 hours, 37° C., 0.6 μg/ml IDE
T1 construct: purchased Merck 407241-50UG
T1 sequence (P35559 1-1019): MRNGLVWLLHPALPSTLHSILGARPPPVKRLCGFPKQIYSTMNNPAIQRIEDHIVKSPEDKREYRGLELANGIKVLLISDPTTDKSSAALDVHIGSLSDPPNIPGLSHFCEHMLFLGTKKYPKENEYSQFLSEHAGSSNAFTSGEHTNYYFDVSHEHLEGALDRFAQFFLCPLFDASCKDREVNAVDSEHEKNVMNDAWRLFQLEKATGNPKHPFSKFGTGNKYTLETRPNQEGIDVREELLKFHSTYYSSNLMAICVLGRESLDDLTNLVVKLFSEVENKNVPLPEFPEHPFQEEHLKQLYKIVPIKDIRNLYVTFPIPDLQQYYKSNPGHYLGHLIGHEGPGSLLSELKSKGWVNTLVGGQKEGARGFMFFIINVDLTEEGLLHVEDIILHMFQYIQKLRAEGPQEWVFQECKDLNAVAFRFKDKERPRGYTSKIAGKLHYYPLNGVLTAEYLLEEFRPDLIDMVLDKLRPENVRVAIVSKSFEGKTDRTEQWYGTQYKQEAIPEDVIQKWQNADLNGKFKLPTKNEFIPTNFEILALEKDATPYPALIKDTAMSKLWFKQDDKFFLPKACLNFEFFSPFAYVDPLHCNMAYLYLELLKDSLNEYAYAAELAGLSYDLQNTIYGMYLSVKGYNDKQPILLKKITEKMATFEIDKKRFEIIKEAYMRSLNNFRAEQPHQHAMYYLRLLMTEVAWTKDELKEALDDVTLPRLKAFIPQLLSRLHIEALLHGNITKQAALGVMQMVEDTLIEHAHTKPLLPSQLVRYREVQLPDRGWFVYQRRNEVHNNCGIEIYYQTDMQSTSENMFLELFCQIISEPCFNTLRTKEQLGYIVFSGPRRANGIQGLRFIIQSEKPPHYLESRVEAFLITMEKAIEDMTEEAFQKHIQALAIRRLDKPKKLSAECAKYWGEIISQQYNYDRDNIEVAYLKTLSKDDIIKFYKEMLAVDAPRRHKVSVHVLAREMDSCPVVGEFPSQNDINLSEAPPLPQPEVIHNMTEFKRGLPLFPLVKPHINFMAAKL

rat BNP receptor (NPR-A) = molecular target: T2, rat BNP receptor (NPR-A) (Rattus norvegicus, UniProt P18910); assay: Fluorescence-based rat BNP receptor (NPR-A) GCaMP6 reporter cell line
T2 construct: expressed in transfected cells; host or cells: CHO cell line stably expressing GCaMP6, co-transfected with CNGA2 and rat NPR-A
T2 sequence (P18910 29-1057): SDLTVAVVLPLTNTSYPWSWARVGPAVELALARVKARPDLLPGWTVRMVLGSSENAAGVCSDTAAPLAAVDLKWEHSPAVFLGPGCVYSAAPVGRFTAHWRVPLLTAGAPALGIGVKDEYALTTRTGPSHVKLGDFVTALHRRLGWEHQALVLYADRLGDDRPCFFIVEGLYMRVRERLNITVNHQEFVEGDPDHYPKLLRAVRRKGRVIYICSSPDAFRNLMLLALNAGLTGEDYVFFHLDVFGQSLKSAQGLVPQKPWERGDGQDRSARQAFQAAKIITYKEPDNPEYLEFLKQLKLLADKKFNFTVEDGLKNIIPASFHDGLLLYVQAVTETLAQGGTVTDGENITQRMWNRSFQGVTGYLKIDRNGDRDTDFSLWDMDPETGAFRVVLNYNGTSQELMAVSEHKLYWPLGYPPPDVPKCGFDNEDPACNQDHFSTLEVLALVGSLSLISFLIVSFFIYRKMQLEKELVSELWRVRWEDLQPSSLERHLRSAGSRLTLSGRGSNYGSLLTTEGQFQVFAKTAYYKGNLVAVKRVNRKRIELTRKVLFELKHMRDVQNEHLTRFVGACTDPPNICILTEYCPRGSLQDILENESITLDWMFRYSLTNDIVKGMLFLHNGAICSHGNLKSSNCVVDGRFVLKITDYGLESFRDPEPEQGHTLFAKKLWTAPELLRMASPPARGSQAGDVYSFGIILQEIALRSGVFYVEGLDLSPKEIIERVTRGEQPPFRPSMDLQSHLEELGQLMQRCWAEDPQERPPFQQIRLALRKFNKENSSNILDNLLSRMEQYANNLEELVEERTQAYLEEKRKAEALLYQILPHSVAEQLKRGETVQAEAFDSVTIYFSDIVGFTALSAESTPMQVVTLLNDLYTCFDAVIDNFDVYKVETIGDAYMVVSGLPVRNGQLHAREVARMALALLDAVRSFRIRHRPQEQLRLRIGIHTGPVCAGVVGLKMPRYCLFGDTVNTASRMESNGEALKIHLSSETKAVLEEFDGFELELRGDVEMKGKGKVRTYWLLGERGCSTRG
Source text: Activity data of BNP engrafted antibodies in NPR-A receptor cell line A luminescence-based rat BNP receptor (NPR-A) cell line was generated as described previously (Wunder et al. (2013), Eur J Pharmacol. 698: 131). Accordingly, a fluorescence-based rat BNP receptor (NPR-A) cell line was generated by co-transfecting a CHO cell line, stably expressing the fluorescent calcium sensor protein GCaMP6, with plasmid constructs encoding CNGA2 (cGMP biosensor) and rat NPR-A.
BNP receptor GCaMP6 cells were cultured for one day on black, clear-bottom 384-well microtiter plates (2500 cells/well). After removal of the cell culture medium reporter cells were loaded for 20 min with Tyrode (130 mM NaCl, 5 mM KCl, 2 mM CaCl2, 20 mM HEPES, 1 mM MgCl2, 4.8 mM NaHCO3 at pH 7.4) containing a black masking dye at 37° C. and 5% CO2. IBMX (0.2 mM) was used to prevent cGMP degradation by endogenous phosphodiesterases.
Fluorescence measurements (3 min, kinetic mode) were directly started upon agonist addition. Receptor ligands were added in Tyrode containing a black masking dye and 0.1% BSA. Measurements were done on a FLIPR Tetra®.

[2] = molecular target: T3, neutral endopeptidase (NEP) (Homo sapiens, UniProt P08473); assay: Sensitivity towards proteolytic degradation by NEP (activity on receptor cell line after incubation); format: in vitro ADME; conditions: 4 hours, 37° C., 0.6 μg/ml NEP
T3 construct: purchased R&D Systems 1182-ZNC
T3 sequence (P08473 whole entry): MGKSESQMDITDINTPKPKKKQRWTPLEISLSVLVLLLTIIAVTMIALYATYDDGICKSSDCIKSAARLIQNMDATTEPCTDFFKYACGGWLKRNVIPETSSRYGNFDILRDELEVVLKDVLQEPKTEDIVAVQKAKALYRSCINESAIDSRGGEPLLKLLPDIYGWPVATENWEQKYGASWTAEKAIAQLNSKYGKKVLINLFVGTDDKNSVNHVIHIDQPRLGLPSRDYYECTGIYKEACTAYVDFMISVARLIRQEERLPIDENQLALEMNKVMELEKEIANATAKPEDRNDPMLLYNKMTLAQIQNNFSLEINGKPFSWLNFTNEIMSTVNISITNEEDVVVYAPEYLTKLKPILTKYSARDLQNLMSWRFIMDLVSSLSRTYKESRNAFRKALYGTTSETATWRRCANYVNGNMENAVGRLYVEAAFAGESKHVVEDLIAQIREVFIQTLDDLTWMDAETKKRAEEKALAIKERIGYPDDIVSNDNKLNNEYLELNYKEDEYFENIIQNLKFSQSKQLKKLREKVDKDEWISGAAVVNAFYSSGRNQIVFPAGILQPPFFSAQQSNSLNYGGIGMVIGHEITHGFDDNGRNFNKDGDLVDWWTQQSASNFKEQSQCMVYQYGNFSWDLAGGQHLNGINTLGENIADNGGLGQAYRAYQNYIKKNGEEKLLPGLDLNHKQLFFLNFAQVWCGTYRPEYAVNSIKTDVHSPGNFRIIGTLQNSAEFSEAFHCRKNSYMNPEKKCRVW

[3] = tested on: PE-contracted aortic rings; assay: Vasorelaxation of isolated rat aortic rings contracted by phenylephrine
Experimental: All experiments were conducted in accordance with institutional guidelines and approved by the local committee on animal experiments. Male Sprague-Dawley rats (weighing 250-300 g) were anesthetized with pentobarbital sodium (40 mg/kg i.p.), killed by decapitation, and exsanguinated. The thoracic aorta was excised and placed in ice-cold Krebs buffer of the following composition: 130 mM NaCl, 14.9 mM NaHCO3, 5.5 mM dextrose, 4.7 mM KCl, 1.18 mM KH2PO4, 1.17 mM MgSO47H2O, and 1.6 mM CaCl22H2O. The vessel was pinned in a Sylgard Petri dish filled with chilled Krebs' solution, cleaned of fat and connective tissue, and cut into ring segments of approximately 3 to 4 mm in length. […] Changes in isometric force were recorded using a PowerLab data acquisition system (software Lab Chart 7.0)
After the equilibration period, aortic rings were challenged with 80 mM KCl to check tissue viability. Next, the endothelial integrity of the preparations was determined by verifying the responsiveness to acetylcholine (ACh, 1 μM) in vessels pre-contracted with Phenylephrine (PE, 1 μM). After wash-out and a period of equilibration, Phenylephrine (PE, 1 μM) was used to induce contraction, thereafter natriuretic peptides and natriuretic peptide engrafted IgGs were evaluated for vasorelaxation.

[4] = tested on: spontaneously hypertensive rats; assay: Blood pressure by radiotelemetry in conscious spontaneously hypertensive rats; format: in vivo, rat; set-up: drop in mean arterial blood pressure (MAP): dose or concentration left out as unconfirmed; conditions: intraperitoneal
Experimental: Female spontaneously hypertensive rats (SHR/N Crl BR, Charles River) with a body weight of 210-300 g were used for these studies. All animals were housed in individual cages at 22-24° C. ambient temperature and maintained on a 12-hour light/dark cycle with free access to standard laboratory rat chow and water ad libitum. Telemeter (HD-10, DSI) implantation was performed a minimum of 14 days before animals were used for blood pressure measurements. Surgery was performed under aseptic conditions. After shaving the abdominal wall, a midline abdominal incision was made, and the fluid-filled sensor catheter was inserted upstream into the exposed descending aorta between the iliac bifurcation and the renal arteries. According to the DSI guidelines the tip of the telemetric catheter was located caudal to the renal arteries and secured by tissue adhesive. The transmitter body was affixed to the inner peritoneal wall before closure of the abdomen. […] Data are expressed as % of basal values±SEM of at least 4 animals per group. The basal value for each animal was calculated as the average of the values measured in two hours prior to substance application (7:00-9:00 AM). Data are then expressed as averages every half hour, starting 15 minutes post application. […]

sensitivity/resistance to proteolytic degradation by IDE [1]	EC50 (rat BNP receptor (NPR-A))	sensitivity/resistance to proteolytic degradation by NEP [2]	Molecule	vasodilation in PE-contracted aortic rings [3]	Potency (log EC50 values), vasodilation ([3]; endothelium-intact rat aortic rings contracted by phenylephrine (1 μM))	drop in mean arterial blood pressure (MAP) [4]	duration of effect on MAP ([4]; 500 g dose)
high sensitivity	–	–	CC[C@H](C)[C@@H]1NC(=O)[C@H](CCCNC(=N)N)NC(=O)[C@H](CC(=O)O)NC(=O)[C@H](CCSC)NC(=O)[C@H](CCCNC(=N)N)NC(=O)CNC(=O)CNC(=O)[C@H](Cc2ccccc2)NC(=O)[C@@H](NC(=O)[C@H](CO)NC(=O)[C@H](CO)NC(=O)[C@H](CCCNC(=N)N)NC(=O)[C@H](CCCNC(=N)N)NC(=O)[C@H](CC(C)C)NC(=O)[C@@H](N)CO)CSSC[C@@H](C(=O)N[C@@H](CC(N)=O)C(=O)N[C@@H](CO)C(=O)N[C@@H](Cc2ccccc2)C(=O)N[C@@H](CCCNC(=N)N)C(=O)N[C@@H](Cc2ccc(O)cc2)C(=O)O)NC(=O)CNC(=O)[C@H](CC(C)C)NC(=O)CNC(=O)[C@H](CO)NC(=O)[C@H](CCC(N)=O)NC(=O)[C@H](C)NC(=O)CNC1=O [ANP, reference compound]	–	–	–	–
high sensitivity	2.9 nM	high sensitivity	CC[C@H](C)[C@@H]1NC(=O)[C@H](CCCNC(=N)N)NC(=O)[C@H](CC(=O)O)NC(=O)[C@H]([C@@H](C)CC)NC(=O)[C@H](CCCCN)NC(=O)[C@H](CCC(N)=O)NC(=O)CNC(=O)[C@H](Cc2ccccc2)NC(=O)[C@@H](NC(=O)[C@H](CO)NC(=O)[C@H](CO)NC(=O)[C@H](CO)NC(=O)[C@H](Cc2c[nH]cn2)NC(=O)[C@H](C)NC(=O)[C@H](CCSC)NC(=O)[C@H](CCCCN)NC(=O)[C@H](CO)NC(=O)[C@@H](N)CC(N)=O)CSSC[C@@H](C(=O)N[C@@H](CC(=O)O)C(=O)NCC(=O)N[C@@H](CC(C)C)C(=O)N[C@@H](CCCNC(=N)N)C(=O)N[C@@H](CC(C)C)C(=O)N[C@@H](Cc2ccccc2)C(=O)O)NC(=O)CNC(=O)[C@H](CC(C)C)NC(=O)[C@H](CCCNC(=N)N)NC(=O)[C@H](CO)NC(=O)[C@H](C(C)C)NC(=O)[C@H](C)NC(=O)CNC1=O [BNP, reference compound] (H-NSKMAHSSSCFGQKIDRIGAVSRLGCDGLRLF-OH; disulfide 10-26; N-terminus and C-terminus assumed)	–	–	–	–
–	–	–	ANP peptide: Rat ANP peptide (ADH-GM-10057T, Santai Labs) used as a reference (SLRRSSCFGGRIDRIGAQSGLGCNSFRY; disulfide 7-23; UniProt P01161 123-150, looked up) [reference compound]	dose-dependent vasodilation	−7.4	approximately 25%	6 to 8 h
